The text below walks through data of patent US8202865B2, “Oxadiazole derivatives” (Merck Serono SA, priority 2007, dated 2012).

The EC50 is the midpoint of the concentration-response curve. A high value points to a less potent agent. As usually defined, the Ki is the equilibrium dissociation constant of an inhibitor or competing ligand from its target.

The structures appear in SMILES notation.

For assay [1], the target named is T1, S1P3 (Homo sapiens, UniProt Q99500).
T1 construct: expressed in transfected cells; host or cells: CHO cells (membranes)
T1 sequence (Q99500 whole entry, species assumed): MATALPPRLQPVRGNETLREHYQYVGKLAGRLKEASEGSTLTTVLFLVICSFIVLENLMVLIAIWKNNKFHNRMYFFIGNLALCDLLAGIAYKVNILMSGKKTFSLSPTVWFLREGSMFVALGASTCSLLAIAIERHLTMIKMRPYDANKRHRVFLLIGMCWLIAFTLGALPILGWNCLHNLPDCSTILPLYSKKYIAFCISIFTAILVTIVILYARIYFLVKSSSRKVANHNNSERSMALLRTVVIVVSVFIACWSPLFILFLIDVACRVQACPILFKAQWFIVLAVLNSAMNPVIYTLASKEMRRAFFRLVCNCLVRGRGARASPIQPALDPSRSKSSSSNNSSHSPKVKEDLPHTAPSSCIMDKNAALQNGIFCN
Kind of assay: 35S-GTPγS binding, S1P3 membranes. In kind it is biochemical. The following applies: membranes from CHO cells expressing S1P3; 60 min 30° C. As for the experimental part: (§1) Receptor binding assay: Membranes were prepared from CHO cells expressing S1P1 or S1P3 for use in ligand and […] binding studies. Cells were suspended in 50 mM TRIS, pH 7.4, 2 mM EDTA, 250 mM Sucrose (buffer A) and 1× Complete protease inhibitor cocktail (Roche), and disrupted at 4° C. by N2 decompression using a cell disruption bomb (Parr Instrument). Following centrifugation at 1000 RPM for 10 min at 4° C., the supernatant was suspended in buffer A and centrifuged again at 19000 RPM for 60 min at 4° C. The pellet was then suspended in 10 mM HEPES, pH 7.4, 1 mM EDTA, 250 mM Sucrose (Buffer B), and 1× Complete EDTA-free protease inhibitor cocktail and homogenized using a potter. Membranes were flash frozen in liquid N2 and stored at −80° C. [33P]sphingosine 1-phosphate (3000 Ci/mmol; American Radiolabeled Chemicals, Inc.) was added to test compounds in DMSO. Membranes and WGA SPA beads (GE Healthcare) were added to give a final volume of 100 μl in 96-well plates with assay concentrations of 25 pM or 10 pM [33P]sphingosine 1-phosphate (respectively for S1P1 or S1P3), 50 mM HEPES, pH 7.5, 5 mM MgCl2, 100 mM NaCl, 0.4% fatty acid-free BSA, 1-5 μg/well of proteins and 100 μg/well of WGA SPA beads. Binding was performed for 60 min at RT on a shaker and bound radioactivity was measured on a PerkinElmer 1450 MicroBeta counter. Specific binding was calculated by subtracting remaining radioactivity in the presence of 1000-fold excess of unlabeled S1P. Binding data were analyzed using the GraphPad Prism program.
Measurements of ^35S-GTPγS Binding: Membranes (1 to 10 μg protein) prepared as described above, were incubated in 96-well Scintiplates (PerkinElmer) with test compounds diluted in DMSO, in 180 μl of 20 mM HEPES, pH 7.4, 10 mM MgCl2, 2 μg/well Saponin, 0.2% fatty acid free BSA (Assay buffer), 140 mM NaCl and 1.7 μM GDP. The assay was initiated with the addition of 20 μl of 1.5 nM [35S]-GTPγS (1100 Ci/mmol; GE Healthcare) in assay buffer. After 60 min incubation at 30° C. on a shaker, plates were centrifuged for 10 min at 2000 RPM. Supernatant was discarded and membrane bound radioactivity was measured on a PerkinElmer 1450 MicroBeta counter. Triplicate samples were averaged and expressed as % response relative to S1P activation in absence of compound (n=2).

The target in assay [2] is T2, S1P1 (Homo sapiens, UniProt P21453).
T2 construct: expressed in transfected cells; host or cells: CHO cells (membranes)
T2 sequence (P21453 whole entry, species assumed): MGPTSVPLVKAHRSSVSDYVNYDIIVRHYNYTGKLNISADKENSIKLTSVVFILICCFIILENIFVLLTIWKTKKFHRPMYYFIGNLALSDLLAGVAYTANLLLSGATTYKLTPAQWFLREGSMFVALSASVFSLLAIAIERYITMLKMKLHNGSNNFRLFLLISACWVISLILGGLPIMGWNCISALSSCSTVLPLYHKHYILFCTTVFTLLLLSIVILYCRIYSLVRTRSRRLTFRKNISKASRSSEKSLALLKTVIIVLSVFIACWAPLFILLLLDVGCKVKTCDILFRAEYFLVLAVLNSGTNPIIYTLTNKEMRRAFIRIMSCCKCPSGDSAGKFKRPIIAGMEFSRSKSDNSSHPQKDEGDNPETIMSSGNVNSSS
Kind of assay: 35S-GTPγS binding, S1P1 membranes. Conditions: membranes from CHO cells expressing S1P1; 60 min 30° C. In kind it is biochemical. The gist of the method:
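CHO-cell membranes expressing S1P1 or S1P3 (1-10 μg) incubated with compounds in 20 mM HEPES pH 7.4, 10 mM MgCl2, 140 mM NaCl, saponin, 0.2% BSA, 1.7 μM GDP and [35S]-GTPγS (20 μl of 1.5 nM added), 60 min at 30° C. Bound radioactivity expressed as % of S1P activation.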
In general terms: GTPγS is a poorly hydrolysed GTP analogue; its binding reports G protein activation.

Assay [3] has as its target T2, S1P1. Briefly: Receptor binding assay, [33P]sphingosine 1-phosphate, membranes, WGA SPA beads. Conditions: membranes from CHO cells expressing S1P1; 25 pM [33P]S1P; 60 min RT. The method, then:
as §1

On to `COCc1cc(-c2nc(-c3ccc(C(=O)NC(C)CC(=O)O)c(F)c3)no2)ccc1-c1ccccc1C` (stereo not drawn) [Example 123, 3-[(2-fluoro-4-{5-[2-(methoxymethyl)-2′-methylbiphenyl-4-yl]-1,2,4-oxadiazol-3-yl}benzoyl)amino]butanoic acid], for which the EC50 in assay [1] amounted to 1210 nM; in assay [2] it was 37.3 nM. This compound displayed a Ki in assay [3] of 4 nM.
The matching figures for `CCOc1cc(-c2nc(-c3ccc(C(=O)O)c(F)c3)no2)ccc1-c1ccccc1C` [Example 102, 4-[5-(2-ethoxy-2′-methylbiphenyl-4-yl)-1,2,4-oxadiazol-3-yl]-2-fluorobenzoic acid]: 1760 nM, 58 nM and 11 nM.
The matching figures for `COCc1cc(-c2nc(-c3cccc(S(N)(=O)=O)c3)no2)ccc1-c1ccccc1C` [Example 170, 3-{5-[2-(methoxymethyl)-2′-methylbiphenyl-4-yl]-1,2,4-oxadiazol-3-yl}benzenesulfonamide]: 214 nM, 0.7 nM and 0.8 nM.
For `CCS(=O)(=O)Nc1cc(-c2nc(-c3ccc(C(=O)O)c(F)c3)no2)ccc1N1CCCCC1C` (stereo not drawn) [Example 67, 4-{5-[3-[(ethylsulfonyl)amino]-4-(2-methylpiperidin-1-yl)phenyl]-1,2,4-oxadiazol-3-yl}-2-fluorobenzoic acid], in that order: 1750 nM, 72 nM and 67 nM.
Consider `CCOCc1cc(-c2nc(-c3ccc(C(=O)O)c(F)c3)no2)ccc1-c1ccccc1C` [Example 63, 4-{5-[2-(ethoxymethyl)-2′-methylbiphenyl-4-yl]-1,2,4-oxadiazol-3-yl}-2-fluorobenzoic acid], for which the EC50 in assay [1] worked out at 615 nM; in assay [2] it was 60 nM. In assay [3], this compound yielded a Ki of 30 nM.
For `COCc1cc(-c2nc(-c3ccc(C(=O)NCCCC(=O)O)c(F)c3)no2)ccc1-c1ccccc1C` [Example 127, 4-[(2-fluoro-4-{5-[2-(methoxymethyl)-2′-methylbiphenyl-4-yl]-1,2,4-oxadiazol-3-yl}benzoyl)amino]butanoic acid], in that order: 1220 nM, 6 nM and 2.1 nM.
For `COCc1cc(-c2nc(-c3ccc(OCC(=O)O)c(F)c3)no2)ccc1-c1ccccc1C` [Example 166, (2-fluoro-{5-[2-(methoxymethyl)-2′-methylbiphenyl-4-yl]-1,2,4-oxadiazol-3-yl}phenoxy)acetic acid], in that order: 219 nM, 14 nM and 11 nM.
For `CCc1ccccc1-c1ccc(-c2nc(-c3ccc(C(=O)O)c(F)c3)no2)cc1COC` [Example 78, 4-{5-[2′-ethyl-2-(methoxymethyl)biphenyl-4-yl]-1,2,4-oxadiazol-3-yl}-2-fluorobenzoic acid], in that order: 3030 nM, 15 nM and 2 nM.
As for `COCc1cc(-c2nc(-c3ccc(C(=O)O)c(F)c3)no2)ccc1-c1cscc1C` [Example 93, 2-fluoro-4-{5-[3-(methoxymethyl)-4-(4-methyl-3-thienyl)phenyl]-1,2,4-oxadiazol-3-yl}benzoic acid], the EC50 in assay [1] was 1380 nM; in assay [2], 18 nM. Besides, the Ki in assay [3] was 10 nM.
In the case of `COCc1cc(-c2nc(-c3cccc(CNC4(C(=O)O)CC4)c3)no2)ccc1-c1ccccc1C` [Example 151, 1-[(3-{5-[2-(methoxymethyl)-2′-methylbiphenyl-4-yl]-1,2,4-oxadiazol-3-yl}benzyl)amino]cyclopropanecarboxylic acid], the EC50 in assay [1] came out at 175 nM; in assay [2], 4.8 nM. For the same compound, the affinity in assay [3], expressed as Ki, was 6.5 nM.
As to `COc1cc(-c2nc(-c3ccc(C(=O)O)c(F)c3)no2)ccc1-c1ccccc1C` [Example 13, 2-fluoro-4-[5-(2-methoxy-2′-methylbiphenyl-4-yl)-1,2,4-oxadiazol-3-yl]benzoic acid], the EC50 in assay [1] was > 30000 nM; in assay [2] it was 341 nM. The compound further had a Ki in assay [3] of 130 nM.
As to `COCc1cc(-c2nc(-c3cccc(C(=O)O)c3)no2)ccc1-c1ccccc1C` [Example 92, 3-{5-[2-(methoxymethyl)-2′-methylbiphenyl-4-yl]-1,2,4-oxadiazol-3-yl}benzoic acid], the EC50 in assay [1] was 1250 nM; in assay [2] it was 63 nM. Besides, the affinity in assay [3] corresponds to a Ki of 37 nM.
For `COCc1cc(-c2nc(-c3ccc(C(N)=O)c(F)c3)no2)ccc1-c1ccccc1C` [Example 179, 2-fluoro-4-{5-[2-(methoxymethyl)-2′-methylbiphenyl-4-yl]-1,2,4-oxadiazol-3-yl}benzamide], in that order: 274 nM, 8 nM and 3 nM.
The matching figures for `O=C(O)c1ccc(-c2noc(-c3ccc(-c4ccccc4Cl)cc3)n2)cc1F` [Example 2, 4-[5-(2′-chlorobiphenyl-4-yl)-1,2,4-oxadiazol-3-yl]-2-fluorobenzoic acid]: > 30000 nM, 4720 nM and 1500 nM.
With `CC1CCCCN1c1ccc(-c2nc(-c3ccc(OCC(=O)O)c(F)c3)no2)cc1C(F)(F)F` (stereo not drawn) [Example 47, (2-fluoro-4-{5-[4-(2-methylpiperidin-1-yl)-3-(trifluoromethyl)phenyl]-1,2,4-oxadiazol-3-yl}phenoxy)acetic acid], the EC50 in assay [1] worked out at 1000 nM; in assay [2] it was 40 nM. The compound further came in with a Ki in assay [3] of 4 nM.
For `COCc1cc(-c2nc(-c3cccc(C(=O)NCCC#N)c3)no2)ccc1-c1ccccc1C` [Example 183, N-(2-cyanoethyl)-3-{5-[2-(methoxymethyl)-2′-methylbiphenyl-4-yl]-1,2,4-oxadiazol-3-yl}benzamide], the half-maximal effective concentration (EC50) came out at 5600 nM in assay [1] and 2.4 nM in assay [2]. For the same compound, the Ki in assay [3] is 2 nM.
As to `Cc1ccccc1-c1ccc(-c2nc(-c3ccc(NCC(=O)O)c(F)c3)no2)cc1C` [Example 56, N-{4-[5-(2,2′-dimethylbiphenyl-4-yl)-1,2,4-oxadiazol-3-yl]-2-fluorophenyl}glycine], the EC50 turned out to be 14500 nM in assay [1] and 70 nM in assay [2]. In assay [3], the affinity, expressed as Ki, was 10 nM.
As to `CCOC(=O)C1(NC(=O)c2ccc(-c3noc(-c4ccc(-c5ccccc5C)c(COC)c4)n3)cc2F)CC1` [Example 118, Ethyl 1-[(2-fluoro-4-{5-[2-(methoxymethyl)-2′-methylbiphenyl-4-yl]-1,2,4-oxadiazol-3-yl}benzoyl)amino]cyclopropanecarboxylate], the EC50 in assay [1] came to 2160 nM; in assay [2] it was 7 nM. The affinity in assay [3], expressed as Ki, was 2 nM.
On to `Cc1cc(-c2nc(-c3ccc(C(=O)O)cc3F)no2)ccc1-c1cscc1C` [Example 26, 3-fluoro-4-{5-[3-methyl-4-(4-methyl-3-thienyl)phenyl]-1,2,4-oxadiazol-3-yl}benzoic acid], for which the EC50 was > 20000 nM in assay [1] and 360 nM in assay [2]. The same compound registered an inhibition constant (Ki) in assay [3] of 172 nM.
For `COCc1cc(-c2nc(-c3ccc(C(=O)O)c(F)c3)no2)ccc1N1CCCCC1C` (stereo not drawn) [Example 114, 2-fluoro-4-{5-[3-(methoxymethyl)-4-(2-methylpiperidin-1-yl)phenyl]-1,2,4-oxadiazol-3-yl}benzoic acid], in that order: 2810 nM, 13 nM and 2.7 nM.
Turning to `COCc1cc(-c2nc(-c3cccc(S(C)(=O)=O)c3)no2)ccc1-c1ccccc1C` [Example 194, 5-[2-(methoxymethyl)-2′-methylbiphenyl-4-yl]-3-[3-(methylsulfonyl)phenyl]-1,2,4-oxadiazole], the EC50 came out at 1720 nM in assay [1] and 1 nM in assay [2]. Besides, in assay [3], affinity was put at a Ki of 1.6 nM.
Consider `COCc1cc(-c2nc(-c3ccc(C(=O)O)c(F)c3)no2)ccc1-c1ccccc1F` [Example 81, 2-fluoro-4-{5-[2′-fluoro-2-(methoxymethyl)biphenyl-4-yl]-1,2,4-oxadiazol-3-yl}benzoic acid], for which the EC50 in assay [1] was 2780 nM; in assay [2] it was 115 nM. The same compound displayed a Ki in assay [3] of 28 nM.
